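Assay format: 96-well plates, 48-hour exposure. At the GI50, growth is halved.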 Active and inactive are the calls of the source. Cut-off read from the data, not from the text of the source: active = GI50 up to about 1.1 µM and inactive = higher.
Experiments:
Assay in all cases: DTP human tumour cell line panel, 48 h
786-0 = test system: 786-0
A549 = test system: A549
ACHN = test system: ACHN
COLO 205 = test system: COLO 205
EKVX = test system: EKVX
HCC 2998 = test system: HCC 2998
HT-29 = test system: HT-29
IGROV-1 = test system: IGROV-1
MDA-MB-435 = test system: MDA-MB-435
OVCAR-3 = test system: OVCAR-3
OVCAR-4 = test system: OVCAR-4
OVCAR-8 = test system: OVCAR-8
RPMI-8226 = test system: RPMI-8226
SF-268 = test system: SF-268
SF-539 = test system: SF-539
SK-MEL-28 = test system: SK-MEL-28
SK-MEL-2 = test system: SK-MEL-2
SN12C = test system: SN12C
SR = test system: SR
U-251 = test system: U-251

Measured: GI50

COc1ccc(CCN2C(=O)C=CC2=O)cc1OC
inactive: 786-0 3.07 µM | A549 23 µM | ACHN 1.77 µM | COLO 205 1.83 µM | EKVX 19.2 µM | HCC 2998 17.4 µM | HT-29 6.31 µM | IGROV-1 18 µM | MDA-MB-435 17.5 µM | OVCAR-3 18 µM | OVCAR-4 1.88 µM | OVCAR-8 19.8 µM | RPMI-8226 1.77 µM | SF-268 22.1 µM | SF-539 17.3 µM | SK-MEL-28 16.4 µM | SK-MEL-2 5.2 µM | SN12C 17.5 µM | SR 2.25 µM | U-251 19.5 µM

CCOC(=O)NNC(=O)NCCNC(=O)NNC(=O)OCC
inactive: 786-0 > 100 µM | A549 > 100 µM | COLO 205 > 100 µM | EKVX > 100 µM | HCC 2998 > 100 µM | HT-29 > 100 µM | MDA-MB-435 > 100 µM | OVCAR-3 > 100 µM | OVCAR-4 > 100 µM | OVCAR-8 > 100 µM | RPMI-8226 > 100 µM | SF-268 > 100 µM | SF-539 > 100 µM | SK-MEL-28 > 100 µM | SK-MEL-2 > 100 µM | SN12C > 100 µM | SR > 100 µM | U-251 > 100 µM

Cc1cc2c(cc1C)C(=O)C1(C2)Cc2c(C)ccc(C)c2C1=O (configuration not stated)
inactive: 786-0 > 100 µM | A549 > 100 µM | ACHN > 100 µM | COLO 205 > 100 µM | EKVX > 100 µM | HCC 2998 > 100 µM | IGROV-1 98.4 µM | MDA-MB-435 > 100 µM | OVCAR-3 > 100 µM | OVCAR-4 > 100 µM | OVCAR-8 > 100 µM | RPMI-8226 > 100 µM | SF-268 > 100 µM | SF-539 > 100 µM | SK-MEL-28 > 100 µM | SK-MEL-2 > 100 µM | SN12C > 100 µM | SR > 100 µM | U-251 > 100 µM

Cc1nc(Nc2ccc(Cl)cc2Cl)sc1C(=O)Nc1ccccc1
inactive: 786-0 53.6 µM | A549 36.6 µM | ACHN 36.1 µM | COLO 205 26.2 µM | EKVX 84.7 µM | HCC 2998 72.1 µM | HT-29 35.3 µM | IGROV-1 63.4 µM | MDA-MB-435 42.2 µM | OVCAR-3 97.1 µM | OVCAR-4 73.6 µM | OVCAR-8 > 100 µM | RPMI-8226 29.2 µM | SF-268 77.6 µM | SF-539 > 100 µM | SK-MEL-28 > 100 µM | SK-MEL-2 39.8 µM | SN12C > 100 µM | SR 28.2 µM | U-251 25.9 µM

Source: ChEMBL document CHEMBL1201862, “PubChem BioAssay data set” (2004)
